Measurements: patent US20260007133A1, “HERBICIDAL COMPOSITION COMPRISING AZINE COMPOUNDS” (BASF SE, priority 2022, published 2026)
Read-outs that look alike come from different tables or passages of the source.

Legend:
Assay type in all cases: in vivo
Abutilon theophrasti = test: Greenhouse pre-emergence (PRE) herbicidal test on ABUTH; conditions: Abutilon theophrasti, pre-emergence; for inhibition at 8 g/ha: use rate 8 gai/ha
How it was run: (§1)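 Seeds were sown per species in pots of loamy sand with about 3.0% humus, treated pre-emergence, watered and hooded until rooted. Plants grew at 10-25° C or 20-35° C depending on species. Damage was scored 0-100 (100 = no emergence or above-ground parts destroyed) at 20 DAT.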

Alopecurus myosuroides = test: Greenhouse pre-emergence (PRE) herbicidal test on ALOMY; conditions: Alopecurus myosuroides, pre-emergence, 480 h, PRE, ALOMY, 20 DAT
How it was run: as §1

Ambrosia artemisiifolia = test: Greenhouse pre-emergence (PRE) herbicidal test on AMBEL; conditions: Ambrosia artemisiifolia, pre-emergence; for inhibition at 8 g/ha: use rate 8 gai/ha
Euphorbia heterophylla = test: Greenhouse pre-emergence (PRE) herbicidal test on EPHHL; conditions: Euphorbia heterophylla, pre-emergence; for inhibition at 8 g/ha: use rate 8 gai/ha
How it was run: as §1

Geranium pusillum = test: Greenhouse post-emergence (POST) herbicidal test on GERPU; conditions: Geranium pusillum, post-emergence, 480 h, POST, GERPU, 20 DAT
How it was run: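 POST spray at 3–15 cm plant height, BBCH stage as given; loamy sand, ~3.0% humus; 10-25° C / 20-35° C per species; 0–100 damage scale; read 20 DAT.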

[1] = use rate 2 gai/ha, read-out: solo application % activity
[2] = use rate 8 gai/ha, read-out: solo application % activity

COc1c(Cl)c(F)c(F)c(F)c1Nc1nc(N)nc(C(C)(C)F)n1 [Compound I-4, N4-(5-Chloro-2,3,4-trifluoro-6-methoxy-phenyl)-6-(1-fluoro-1-methyl-ethyl)-1,3,5-triazine-2,4-diamine]
inhibition at 8 g/ha (Abutilon theophrasti; 240 h, PRE, 10 DAT, read-out: % activity): 50% | inhibition at 16 g/ha (Abutilon theophrasti; 240 h, PRE, use rate 16 gai/ha, 10 DAT): 70% | pest or weed control at 2 g/ha (Abutilon theophrasti; 480 h, PRE, ABUTH, I-4 solo 2 gai/ha, 20 DAT): 35% | inhibition at 8 g/ha (Abutilon theophrasti; 480 h, PRE, ABUTH, 20 DAT, read-out: solo application % activity): 90% | inhibition at 2 g/ha (Abutilon theophrasti; ABUTH PRE, use rate 2 gai/ha, read-out: % activity): 10% | inhibition at 8 g/ha (Abutilon theophrasti; ABUTH PRE, read-out: % activity): 80% | pest or weed control at 2 g/ha (Alopecurus myosuroides; I-4 solo 2 gai/ha, read-out: % activity): 50% | inhibition at 2 g/ha (Alopecurus myosuroides; [1]): 5% | inhibition at 8 g/ha (Alopecurus myosuroides; [2]): 25% | inhibition at 4 g/ha (Ambrosia artemisiifolia; 240 h, PRE, use rate 4 gai/ha, 10 DAT): 10% | pest or weed control at 8 g/ha (Ambrosia artemisiifolia; 480 h, PRE, AMBEL, I-4 solo 8 gai/ha, 20 DAT): 35% | inhibition at 2 g/ha (Ambrosia artemisiifolia; 480 h, PRE, AMBEL, use rate 2 gai/ha, 20 DAT, read-out: solo application % activity): 0% | inhibition at 8 g/ha (Ambrosia artemisiifolia; 480 h, PRE, AMBEL, 20 DAT, read-out: solo application % activity): 30% | inhibition at 8 g/ha (Ambrosia artemisiifolia; AMBEL PRE, read-out: % activity): 15% | pest or weed control at 8 g/ha (Euphorbia heterophylla; 480 h, PRE, EPHHL, I-4 solo 8 gai/ha, 20 DAT): 5% | inhibition at 2 g/ha (Euphorbia heterophylla; 480 h, PRE, EPHHL, use rate 2 gai/ha, 20 DAT, read-out: solo application % activity): 0% | inhibition at 8 g/ha (Euphorbia heterophylla; 480 h, PRE, EPHHL, 20 DAT, read-out: solo application % activity): 10% | inhibition at 8 g/ha (Euphorbia heterophylla; EPHHL PRE, read-out: % activity): 40% | pest or weed control at 2 g/ha (Geranium pusillum; I-4 solo 2 gai/ha): 10% | pest or weed control at 8 g/ha (Geranium pusillum; I-4 solo 8 gai/ha): 30% | inhibition at 2 g/ha (Geranium pusillum; [1]): 5% | inhibition at 8 g/ha (Geranium pusillum; [2]): 25%
